Measurements taken from patent US20200216906A1, “METHODS AND COMPOSITIONS RELATING TO THE DIAGNOSIS AND TREATMENT OF CANCER” (PRESIDENT AND FELLOWS OF HARVARD COLLEGE, priority 2015, published 2020).
“Also recorded” adds a separate entry of the source. Where two headings read alike, the source gives them in different places. Starred links: 1 amine or outer side, 2 acyl side, 3 side chain; linkers in the order of their positions; H or OH if unused. Positions of bridges follow the written chain, without caps; N, C: chain ends. Non-standard residues stand in square brackets, D forms with d. Residues, ends and D or L forms follow the SMILES beside them. Chains are numbered I, II in the order given. Actinocin(9to1) = Cc1c2oc3c(C)ccc(C(=O)[*:1])c3nc-2c(C(=O)[*:2])c(N)c1=O; NMeV = CN[C@H](C(=O)O)C(C)C; Sar = CNCC(=O)O

Columns and labels:
[1] = test system: Panc02.13 cells expressing vector only (02.13-WT); assay: Kinetic cell growth assay, Panc02.13 cells expressing vector only; format: cell-based, human
Protocol: (§1) Panc02.13 cells were used to express YAPS6A (or vector controls) under sparse and dense cultures. Expression was confirmed by confocal microscopy (data not shown). Suppression of the Hippo pathway by expression of non-phospho, active form of YAP (YAPS6A) sensitized pancreatic cancer cells to gemcitabine and 5-FU (FIGS. 6 and 7). Apoptosis was measured by immunobloting with cleaved caspases 3/7 or PARP. Blots were also stained with anti-β-actin for loading control. The effect of Hippo pathway suppression on gemcitabine and 5-FU senstitization was maintained in 3D spheroid culture (FIG. 8). The effects of eleven cytotoxic drugs on the growth of Panc02.13 cells expressing vector only or YAPS6A construct grown under low or high densities were determined (Table 1).
(§2) The effect of gemcitabine on pancreatic cancer cell growth was studied using a kinetic cell growth assay. Pancreatic cancer cells were plated on 96-well plates (Essen ImageLock, Essen Instruments, MI, US) at varying densities (2-4×10^3 for low density or 15-20×10^3 for high density experiments). Small molecule inhibitors at different doses were added 24 hours after plating and cell confluence was monitored with Incucyte Live-Cell Imaging System and software (Essen Instruments). Confluence was observed every hour for 48-144h or until the control (DMSO only) samples reached 100% confluence.
as §2, with “Kinetic Cell growth assay. The” for “The”, “(2-4X103” for “(2-4×10^3”, “15-20X103” for “15-20×10^3”, “Incucyte™” for “Incucyte”

[2] = test system: Panc02.13 cells expressing YAPS6A construct; assay: Kinetic cell growth assay, Panc02.13 cells expressing YAPS6A; format: cell-based, human; settings: for EC50: YAPS6A construct
Protocol: as §1, §2
Cell lines (Panc02.13, Panc10.05 or Miapaca2) were transfected with YAPS6A constructs (Addgene) using Lipofectamine™ (Invitrogen, Carlsbad, Calif.) following the manufacturer's instructions and 48 hour post-transfection selected in 5-10 μg/ml Blasticidin (InvivoGen, San Diego, Calif.). The clones screened for YAPS6A expression by Western blot. Stable cell lines were maintained in complete medium and 5 μg/ml Blasticidin.
as §2, with “Kinetic Cell growth assay. The” for “The”, “(2-4X103” for “(2-4×10^3”, “15-20X103” for “15-20×10^3”, “Incucyte™” for “Incucyte”

[3] = test system: Panc02.13 cells expressing the YAPS6A mutant; assay: 3D spheroid growth assay, Panc02.13 cells expressing YAPS6A; format: cell-based, human; settings: YAP activity increased
Panc02.13 cells = assay: 3D spheroid growth assay, Panc02.13 (GFP/parental) cells; settings: for Efficacy in inhibiting cell growth when the Hippo pathway was not inhibited: Hippo-YAP pathway active; for Inhibition in high density growth conditions: 3D-spheroid screen
Protocol: Cancer cell lines were seeded at a 5×10^3 cells per well in a 96-well ultra-low adherence plates (Costar) and briefly spun down at 1000 rpm for 5 minutes. After 2 days, cells were treated with small molecule inhibitors at varying concentrations. Growth of spheroids was monitored using live cell imaging every 2-3 hours for 4-7 days in the Incucyte FLR™ system (Essen) or as end point assay using CellTiter-Glo™ luminescent cell viability assay (Promega).
A dose response curve for each inhibitor is calculated based on control (no inhibitor/DMSO) treated wells.
Cancer cell lines were seeded at a 5×10^3 cells per well in a 96-well ultra-low adherence plates (Costar) and briefly spun down at 1000 rpm for 5 minutes. After 2 days, cells were treated with small molecule inhibitors at varying concentrations. Growth of spheroids was monitored using live cell imaging every 2-3 hours for 4-7 days in the Incucyte ZOOM™ system (Essen) or as end point assay using CellTiter-Glo™ luminescent cell viability assay (Promega).

[4] = test system: pancreatic cancer cell lines; assay: Kinetic cell growth assay, panel of pancreatic cancer cell lines; format: cell-based, human; settings: for Dependence of cellular response on cell crowding: seven PDAC cell lines, threshold >100 fold difference in EC50; for Density dependence of efficacy: seven pancreatic cancer cell lines, sparse and dense conditions
Protocol: as §2
FIG. 20A illustrates the kinetic cell growth assay to determine the effect of gemcitabine in a panel of pancreatic cancer cell lines. Cells are plated at low crowding conditions (10-25% confluence) and 24 hours later exposed to gemcitabine in a dose-dependent manner. They are imaged every 1-3 hours until control (vehicle) treated cells reach 100% confluence. This assay is not confounded by the fact that the time required for each cell line to reach 100% confluence may be very different (as the cell lines have different doubling times). A dose response effect of gemcitabine on cell growth for 16 pancreatic cancer cell lines is shown in FIGS. 20B, 3, 31A-31C and 28, where the range of previous studies is also shown. […] Similar responses to gemcitabine were found in liver cancer cell lines (Huh7 and FOCUS) and untransformed (HEK293) cell lines (FIGS. 3, 31A-31C).
as §2, with “Kinetic Cell growth assay. The” for “The”, “(2-4X103” for “(2-4×10^3”, “15-20X103” for “15-20×10^3”, “Incucyte™” for “Incucyte”

[5] = high density, read-out: High density (EC50, nM) 02.13-WT
[6] = low density, read-out: Low density (EC50, nM) 02.13-WT
[7] = high density, read-out: High density (EC50, nM) 02.13-YAPS6A
[8] = low density, read-out: Low density (EC50, nM) 02.13-YAPS6A
[9] = Homo sapiens, high density, read-out: High density (EC50, nM) 02.13-WT
[10] = Homo sapiens, low density, read-out: Low density (EC50, nM) 02.13-WT
[11] = Homo sapiens, high density, read-out: High density (EC50, nM) 02.13-YAPS6A
[12] = Homo sapiens, low density, read-out: Low density (EC50, nM) 02.13-YAPS6A

Compound: Epothilone
- EC50 [1, 5]: 20 nM
- EC50 [1, 6]: < 1 nM
- EC50 [2, 7]: 767 nM
- EC50 [2, 8]: < 1 nM

Compound: Nc1nc(Cl)nc2c1ncn2[C@@H]1O[C@H](CO)[C@@H](O)[C@@H]1F [clofarabine]
- Efficacy in inhibiting cell growth when the Hippo pathway was inhibited [3]: increased efficacy in inhibiting cell growth

Compound: COC(=O)C[C@](O)(CCCC(C)(C)O)C(=O)O[C@@H]1C(OC)=C[C@]23CCCN2CCc2cc4c(cc2[C@H]13)OCO4 [omacetaxine mepesuccinate]
- Efficacy in inhibiting cell growth when the Hippo pathway was not inhibited (Panc02.13 cells): effective in preventing cancer cell growth independent of the state of Hippo-YAP signaling pathway activity; also recorded: efficacious in inhibiting cell growth

Compound: CCc1c2c(nc3ccc(OC(=O)N4CCC(N5CCCCC5)CC4)cc13)-c1cc3c(c(=O)n1C2)COC(=O)[C@]3(O)CC [Irrenotecan]
- EC50 [1, 5]: 8500 nM
- EC50 [1, 6]: 1070 nM
- EC50 [2, 7]: 1650 nM
- EC50 [2, 8]: 1700 nM
- Efficacy in inhibiting cell growth when the Hippo pathway was inhibited [3]: increased efficacy in inhibiting cell growth; also recorded: particularly significant inhibitory activity

Compound: CC(C)C[C@H](NC(=O)[C@H](CCc1ccccc1)NC(=O)CN1CCOCC1)C(=O)N[C@@H](Cc1ccccc1)C(=O)N[C@@H](CC(C)C)C(=O)[C@@]1(C)CO1 [carfilzomib]
- Inhibition in high density growth conditions (Panc02.13 cells): significant inhibition
- Efficacy in inhibiting cell growth when the Hippo pathway was not inhibited (Panc02.13 cells): effective in preventing cancer cell growth independent of the state of Hippo-YAP signaling pathway activity; also recorded: efficacious in inhibiting cell growth

Compound: Nc1nc2nc[nH]c2c(=S)[nH]1 [tioguanine]
- Efficacy in inhibiting cell growth when the Hippo pathway was inhibited [3]: increased efficacy in inhibiting cell growth

Compound: CO[C@@]12[C@H](COC(N)=O)C3=C(C(=O)C(C)=C(N)C3=O)N1C[C@@H]1N[C@@H]12 [mitomycin]
- Efficacy in inhibiting cell growth when the Hippo pathway was inhibited [3]: increased efficacy in inhibiting cell growth

Compound: CC(=O)O[C@@]12CO[C@@H]1C[C@H](O)[C@@]1(C)C(=O)[C@H](O)C3=C(C)[C@@H](OC(=O)[C@H](O)[C@@H](NC(=O)OC(C)(C)C)c4ccccc4)C[C@@](O)([C@@H](OC(=O)c4ccccc4)[C@H]21)C3(C)C [Docetaxel]
- EC50 [1, 9]: 2400 nM
- EC50 [1, 10]: 3.5 nM
- EC50 [2, 11]: 4820 nM
- EC50 [2, 12]: 7 nM
- Dependence of cellular response on cell crowding [4]: weak or no correlation with cell density
- Density dependence of efficacy [4]: largely density independent

Compound: S=c1nc[nH]c2nc[nH]c12 [mercaptopurine]
- Efficacy in inhibiting cell growth when the Hippo pathway was inhibited [3]: increased efficacy in inhibiting cell growth

Compound: C1CN1c1nc(N2CC2)nc(N2CC2)n1 [triethylenemelamine]
- Efficacy in inhibiting cell growth when the Hippo pathway was not inhibited (Panc02.13 cells): demonstrated efficacy at higher doses

Compound: Nc1ccn([C@@H]2O[C@H](CO)[C@@H](O)[C@@H]2O)c(=O)n1 [cytarabine]
- Efficacy in inhibiting cell growth when the Hippo pathway was inhibited [3]: increased efficacy in inhibiting cell growth

Compound: O=C1[O][Pt]2([NH][C@@H]3CCCC[C@H]3[NH]2)[O]C1=O [Oxaliplatin]
- EC50 [1, 5]: 5200 nM
- EC50 [1, 6]: 937 nM
- EC50 [2, 7]: 3180 nM
- EC50 [2, 8]: 5890 nM
- Dependence of cellular response on cell crowding [4]: weak or no correlation with cell density
- Density dependence of efficacy [4]: largely density independent

Compound: O=c1[nH]cc(F)c(=O)[nH]1 [5-FU, 5-fluorouracil]
- EC50 [1, 9]: > 10000 nM
- EC50 [1, 10]: 350 nM
- EC50 [2, 11]: 3000 nM
- Sensitization by expression of YAPS6A ([2]; suppression of the Hippo pathway, high cell density): sensitized
- Efficacy in inhibiting cell growth when the Hippo pathway was inhibited [3]: increased efficacy in inhibiting cell growth

Compound: CC(=O)O[C@H]1C(=O)[C@@]2(C)[C@H]([C@H](OC(=O)c3ccccc3)[C@]3(O)C[C@H](OC(=O)[C@H](O)[C@@H](NC(=O)c4ccccc4)c4ccccc4)C(C)=C1C3(C)C)[C@]1(OC(C)=O)CO[C@@H]1C[C@@H]2O [Paclitaxel]
- EC50 [1, 9]: 1670 nM
- EC50 [1, 10]: 3 nM
- EC50 [2, 12]: 3 nM
- Dependence of cellular response on cell crowding [4]: weak or no correlation with cell density
- Density dependence of efficacy [4]: largely density independent

Compound: Cc1c2oc3c(C)ccc(C(=O)N[C@@H]4C(=O)N[C@H](C(C)C)C(=O)N5CCC[C@H]5C(=O)N(C)CC(=O)N(C)[C@@H](C(C)C)C(=O)O[C@@H]4C)c3nc-2c(C(=O)N[C@@H]2C(=O)N[C@H](C(C)C)C(=O)N3CCC[C@H]3C(=O)N(C)CC(=O)N(C)[C@@H](C(C)C)C(=O)O[C@@H]2C)c(N)c1=O [dactinomycin] (I: T[dV]P[Sar][NMeV] / II: T[dV]P[Sar][NMeV]; ester I:1-I:C, II:1-II:C; linker I:N-II:N via Actinocin(9to1))
- Inhibition in high density growth conditions (Panc02.13 cells): significant inhibition
- Efficacy in inhibiting cell growth when the Hippo pathway was not inhibited (Panc02.13 cells): effective in preventing cancer cell growth independent of the state of Hippo-YAP signaling pathway activity; also recorded: efficacious in inhibiting cell growth

Compound: CCCCC(=O)OCC(=O)[C@]1(O)Cc2c(O)c3c(c(O)c2[C@@H](O[C@H]2C[C@H](NC(=O)C(F)(F)F)[C@H](O)[C@H](C)O2)C1)C(=O)c1c(OC)cccc1C3=O [valrubicin]
- Efficacy in inhibiting cell growth when the Hippo pathway was inhibited [3]: increased efficacy in inhibiting cell growth
- Efficacy in inhibiting cell growth when the Hippo pathway was not inhibited (Panc02.13 cells): efficacious in inhibiting cell growth

Compound: COc1cccc2c1C(=O)c1c(O)c3c(c(O)c1C2=O)C[C@@](O)(C(C)=O)C[C@@H]3O[C@H]1C[C@H](N)[C@H](O)[C@H](C)O1 [daunorubicin]
- Efficacy in inhibiting cell growth when the Hippo pathway was inhibited [3]: increased efficacy in inhibiting cell growth
- Efficacy in inhibiting cell growth when the Hippo pathway was not inhibited (Panc02.13 cells): efficacious in inhibiting cell growth

Compound: CNC(=O)c1ccc(N2C(=S)N(c3ccc(C#N)c(C(F)(F)F)c3)C(=O)C2(C)C)cc1F [enzalutamide]
- Efficacy in inhibiting cell growth when the Hippo pathway was not inhibited (Panc02.13 cells): effective in preventing cancer cell growth independent of the state of Hippo-YAP signaling pathway activity; also recorded: efficacious in inhibiting cell growth

Compound: CC(C)C[C@H](NC(=O)[C@H](Cc1ccccc1)NC(=O)c1cnccn1)B(O)O [bortezomib]
- Efficacy in inhibiting cell growth when the Hippo pathway was not inhibited (Panc02.13 cells): effective in preventing cancer cell growth independent of the state of Hippo-YAP signaling pathway activity; also recorded: efficacious in inhibiting cell growth

Compound: CO[C@H]1C[C@@H]2CC[C@@H](C)[C@@](O)(O2)C(=O)C(=O)N2CCCC[C@H]2C(=O)O[C@H]([C@H](C)C[C@@H]2CC[C@@H](OCCO)[C@H](OC)C2)CC(=O)[C@H](C)/C=C(\C)[C@@H](O)[C@@H](OC)C(=O)[C@H](C)C[C@H](C)/C=C/C=C/C=C/1C [Everolimus]
- Efficacy in inhibiting cell growth when the Hippo pathway was not inhibited (Panc02.13 cells): demonstrated efficacy at higher doses

Compound: Cc1ccc(NC(=O)c2ccc(CN3CCN(C)CC3)cc2)cc1Nc1nccc(-c2cccnc2)n1 [imatinib]
- Efficacy in inhibiting cell growth when the Hippo pathway was inhibited [3]: increased efficacy in inhibiting cell growth

Compound: CC[C@@]1(O)C(=O)OCc2c1cc1n(c2=O)Cc2cc3ccccc3nc2-1 [Camtothecin, Camptothecin]
- EC50 [1, 9]: 15 nM
- EC50 [1, 10]: 5.2 nM
- EC50 [2, 11]: 9 nM
- EC50 [2, 12]: 6 nM
- Dependence of cellular response on cell crowding [4]: weak or no correlation with cell density
- Density dependence of efficacy [4]: density-dependent
- Efficacy in inhibiting cell growth when the Hippo pathway was inhibited [3]: increased efficacy in inhibiting cell growth

Compound: C/C(=C\c1csc(C)n1)[C@@H]1C[C@@H]2O[C@]2(C)CCC[C@H](C)[C@H](O)[C@@H](C)C(=O)C(C)(C)[C@@H](O)CC(=O)N1 [ixabepilone]
- Efficacy in inhibiting cell growth when the Hippo pathway was inhibited [3]: increased efficacy in inhibiting cell growth
